Assay results as given in patent publication US9340492B2, “Meta-Diarylaniline or meta-diarylpyridinamine compound, preparation method and medical uses thereof” (INSTITUTE OF PHARMACOLOGY AND TOXICOLOGY ACADEMY OF …, priority 2012, dated 2016).
Values after ≈ are worked out from the molar mass of the structure shown. Read-outs that look alike come from different tables or passages of the source.

How the values were obtained:
[1] = TZM-bl cytotoxicity assay (XTT); type: cell-based; conditions: human, TZM-bl cells, read-out: CC50, concentration effective to inhibit the growth of half of cells
Experimental: The assay was carried out by reference to the document (Dang, Z, et al. J. Med. Chem. 2009, 52, 7887-7891). In particular, in a 96-well cell culture plate, solutions of Compounds 1-57 at different concentrations (100 μl) were mixed with an equivalent volume of TZM-bl cells (from National Institutes of Health (NIH)) (5×10^5/mL), and were incubated at 37° C. for 4 d. 50 μl of freshly prepared XTT solution (1 mg/mL) containing 0.02 μM PMS was added. Optical density at 450 nm was measured 4 h later.

[2] = test system: NL4-3 virus; assay: Anti-HIV activity assay (TZM-bl cell model), NL4-3 wild-type; type: cell-based; conditions: read-out: EC50, concentration effective to inhibit the replication of half of viruses
Experimental: (§1) The assay was carried out by reference to the document (Dang, Z, et al. J. Med. Chem. 2009, 52, 7887-7891). In particular, in a 96-well cell culture plate, solutions of the compounds to be tested at different concentrations were mixed with TZM-bl cells (from National Institutes of Health (NIH)) infected with 200 TCID50 NL4-3 virus, respectively. 2 days later, the culture medium was removed, 100 μl of Bright Glo reagent was added to each well, and Victor 2 luminometer was used to detect the […] of the cells.

[3] = test system: NL4-3 virus (HIV, wild-type); assay: as above; type: cell-based; conditions: human, TZM-bl cells infected with HIV-1 NL4-3 virus; CC50 (TZM-bl) / EC50 (NL4-3); read-out: SI, selective index, ratio of toxic CC50 value to active EC50 value
Experimental: as §1

[4] = test system: K101E drug-resistant virus; assay: Activity against drug-resistant virus K101E; type: cell-based, HIV; conditions: Human immunodeficiency virus 1, read-out: Drug-resistant viruses EC50, K101E
[5] = Incubation experiment of human liver microsomes; type: in vitro ADME
[6] = Water-solubility at pH2.0; type: physicochemical; conditions: aqueous medium (water) at pH 2.0, pH 2, simulated gastric fluid
[7] = Human immunodeficiency virus 1, NL43, NL4-3 HIV wild-type, TZM-bl cells

Structure (SMILES)	EC50 [2, 7] [nM]	melting point [°C]	CC50 at 4 d [1] [nM]	selectivity ratio at 2 days [3]	also measured
Cc1cc(CCC#N)cc(C)c1Oc1cc(Nc2ccc(C#N)cc2)c(N)cc1C(N)=O [Compound 10, 4-carbamoyl-N^1-(4′-cyanophenyl)-5-(4″-cyanoethyl-2″,6″-dimethylphenoxy)-1,2-phenylenediamine]	1.39	–	> 9400	> 6760	–
N#Cc1ccc(Nc2nc(Oc3c(F)cc(CCCO)cc3F)ccc2N)cc1 [Compound 24, N^2-(4-cyanoanilinyl)-6-(2,6-difluoro-4-(3-hydroxypropyl)phenoxy)-3-aminopyridine]	48	–	> 25200	> 525	–
Cc1cc(/C=C/C#N)cc(C)c1Oc1cc(Nc2ccc(C#N)cc2)c([N+](=O)[O-])cc1C(F)(F)F [Compound 1, 5-(4″-cyanovinyl-2″,6″-dimethylphenoxy)-N^1-(4′-cyanophenyl)-4-trifluoromethyl-2-nitroaniline]	–	248 to 250	–	–	–
N#CCCc1cc(F)c(Oc2ccc(N)c(Nc3ccc(C#N)cc3)n2)c(F)c1 [Compound 21, N^2-(4-cyanoanilinyl)-6-(2,6-difluoro-4-cyanoethyl-phenoxy)-3-aminopyridine]	2.8	–	> 10200	> 3640	–
CCCc1cc(C)c(Oc2ccc(N)c(Nc3ccc(C#N)cc3)n2)c(C)c1 [Compound 16, N^2-(4-cyanoanilinyl)-6-(2,6-dimethyl-4-propylphenoxy)-3-aminopyridine]	14.7	–	16400	1120	–
CNC(=O)c1cc(N)c(Nc2ccc(C#N)cc2)cc1Oc1c(C)cc(CCC#N)cc1C [Compound 12, 5-(4″-cyanoethyl-2″,6″-dimethylphenoxy)-N^1-(4′-cyanophenyl)-4-(N-methyl-carbamoyl)-1,2-phenylenediamine]	–	–	> 9100	> 3330	EC50 [4]: 14 nM; HLM t1/2 [5]: 55.7 min; solubility [6]: 8.28 µg/mL (≈ 18.8 µM); EC50 ([2]; Human immunodeficiency virus 1, NL43, TZM-bl): 2.73 nM
Cc1cc(/C=C/C#N)cc(C)c1Oc1cc(Nc2ccc(C#N)cc2)c([N+](=O)[O-])cc1S(N)(=O)=O [Compound 13, N-(4′-cyanophenyl)-5-(4″-cyanovinyl-2″,6″-dimethylphenoxy)-4-aminosulfonyl-2-nitroaniline]	–	198 to 200	–	–	–
COC(=O)CCc1cc(F)c(Oc2ccc(N)c(Nc3ccc(C#N)cc3)n2)c(F)c1 [Compound 23, N^2-(4-cyanoanilinyl)-6-(2,6-difluoro-4-methyl propionatephenoxy)-3-aminopyridine]	99	–	> 15300	> 155	–
Cc1cc(/C=C/C#N)cc(C)c1Oc1cc(Nc2ccc(C#N)cc2)c([N+](=O)[O-])cc1C(=O)O [Compound 7, 4-carboxyl-5-(4″-cyanovinyl-2″,6″-dimethylphenoxy)-N^1-(4′-cyanophenyl)-2-nitroaniline]	–	262 to 265	–	–	–
Cc1cc(/C=C/C#N)cc(C)c1Oc1cc(Nc2ccc(C#N)cc2)c([N+](=O)[O-])cc1CO [Compound 5, N^1-(4′-cyanophenyl)-5-(4″-cyanovinyl-2″,6″-dimethylphenoxy)-4-hydroxymethyl-2-nitroaniline]	–	232 to 234	–	–	–
Cc1cc(CO)cc(C)c1Oc1cc(Nc2ccc(C#N)cc2)c(N)cc1CO [Compound 18, N^1-(4′-cyanophenyl)-5-(4″-hydroxymethyl-2″,6″-dimethylphenoxy)-4-hydroxymethyl-1,2-phenylenediamine]	10	–	> 15900	> 1590	–
CNC(=O)c1cc([N+](=O)[O-])c(Nc2ccc(C#N)cc2)cc1Oc1c(C)cc(/C=C/C#N)cc1C [Compound 11, N^1-(4′-cyanophenyl)-5-(4″-cyanovinyl-2″,6″-dimethylphenoxy)-4-(N-methylacylamino)-2-nitroaniline]	–	218 to 220	–	–	–
Cc1cc(CO)cc(C)c1Oc1cc(Nc2ccc(C#N)cc2)c([N+](=O)[O-])cc1CO [Compound 17, N-(4′-cyanophenyl)-5-(4″-hydroxymethyl-2″,6″-dimethylphenoxy)-4-hydroxymethyl-2-nitroaniline]	–	216 to 218	–	–	–
Cc1cc(/C=C/C#N)cc(C)c1Oc1cc(Nc2ccc(C#N)cc2)c([N+](=O)[O-])cc1C(N)=O [Compound 9]	–	278 to 280	–	–	–
COC(=O)c1cc([N+](=O)[O-])c(Nc2ccc(C#N)cc2)cc1Oc1c(C)cc(/C=C/C#N)cc1C [Compound 3, 5-(4″-cyanovinyl-2″,6″-dimethylphenoxy)-N^1-(4′-cyanophenyl)-4-methoxycarbonyl-2-nitroaniline]	–	260 to 262	–	–	–

Continued, in another order:

EC50 [2, 7] [nM]	melting point [°C]	Structure (SMILES)	CC50 at 4 d [1] [nM]	selectivity ratio at 2 days [3]	also measured
1.33	–	Cc1cc(CCC#N)cc(C)c1Oc1cc(Nc2ccc(C#N)cc2)c(N)cc1C(=O)NC1CC1 [Compound 43, N^1-(4′-cyanophenyl)-5-(4″-cyanoethyl-2″,6″-dimethylphenoxy)-4-[N-cyclopropylformamido]-1,2-phenylenediamine]	> 5000	> 3760	–
6.17	–	Cc1cc(CCC#N)cc(C)c1Oc1cc(Nc2ccc(C#N)cc2)c(N)cc1C(=O)N(C)C [Compound 42, N^1-(4′-cyanophenyl)-5-(4″-cyanoethyl-2″,6″-dimethylphenoxy)-4-[N,N-dimethylformamido]-1,2-phenylenediamine]	> 5000	> 810	–
6.1	118 to 120	Cc1cc(CCC#N)cc(C)c1Oc1cc(Nc2ccc(C#N)cc2)c(N)cc1N [Compound 35, 5-(4″-cyanoethyl-2″,6″-dimethylphenoxy)-N^1-(4′-cyanophenyl)-4-amino-1,2,4-triaminobenzene]	> 5000	> 820	–
25.7	–	COc1cc(/C=C/C#N)cc(Br)c1Oc1ccc(N)c(Nc2ccc(C#N)cc2)n1 [Compound 26B]	21300	1210	–
2.18	–	COCc1cc(N)c(Nc2ccc(C#N)cc2)cc1Oc1c(C)cc(CCC#N)cc1C [Compound 38, N^1-(4′-cyanophenyl)-5-(4″-cyanoethyl-2″,6″-dimethylphenoxy)-4-methoxymethyl-1,2-phenylenediamine]	> 5000	> 2290	–
19.1	–	Cc1cc(CCC#N)cc(C)c1Oc1cc(Nc2ccc(C#N)cc2)c(N)cc1C(=O)NN [Compound 36, 5-(4″-cyanoethyl-2″,6″-dimethylphenoxy)-N^1-(4′-cyanophenyl)-4-formhydrazide-1,2-phenylenediamine]	> 22700	> 1190	–
3.29	–	CC(=O)OCc1cc(N)c(Nc2ccc(C#N)cc2)cc1Oc1c(C)cc(CCC#N)cc1C [Compound 37, 4-acetyloxymethyl-N^1-(4′-cyanophenyl)-5-(4″-cyanoethyl-2″,6″-dimethylphenoxy)-1,2-phenylenediamine]	> 5000	> 1520	–
4.7	–	CC(=O)CCc1cc(F)c(Oc2ccc(N)c(Nc3ccc(C#N)cc3)n2)c(F)c1 [Compound 30, N^2-(4-cyanoanilinyl)-6-(2,6-difluoro-4-(2-butanonyl)phenoxy)-3-aminopyridine]	> 9800	> 2130	–
–	275 to 277	CC(=O)/C=C/c1cc(F)c(Oc2ccc([N+](=O)[O-])c(Nc3ccc(C#N)cc3)n2)c(F)c1 [Compound 29, N^2-(4-cyanoanilinyl)-6-(2,6-difluoro-4-((E)-1-methyleneacetonyl)phenoxy)-3-nitropyridine]	–	–	–
1.63	–	Cc1cc(CCC#N)cc(C)c1Oc1cc(Nc2ccc(C#N)cc2)c(N)cc1COC(=O)C1CC1 [Compound 39, N^1-(4′-cyanophenyl)-5-(4″-cyanoethyl-2″,6″-dimethylphenoxy)-4-cyclopropionyloxymethyl-1,2-phenylenediamine]	> 5000	> 3070	–
2.73	–	Cc1cc(CCC#N)cc(C)c1Oc1cc(Nc2ccc(C#N)cc2)c(N)cc1CN(C)C [Compound 40, N^1-(4′-cyanophenyl)-5-(4″-cyanoethyl-2″,6″-dimethylphenoxy)-4-[N,N-dimethylaminomethyl]-1,2-phenylenediamine]	> 5000	> 1830	–
4.63	–	CCNC(=O)c1cc(N)c(Nc2ccc(C#N)cc2)cc1Oc1c(C)cc(CCC#N)cc1C [Compound 41]	> 5000	> 1080	–
